Measured values published in publication PMC4232510, “Identification of Functionally Important Residues of the Rat P2X4 Receptor by Alanine Scanning Mutagenesis of the Dorsal Fin and Left Flipper Domains” (PLoS ONE, 2014).
Positions count from the first letter of the chain named. Values belong to the molecule of their own block, whether it stands above or below them.

Tests used:
Assay in all cases: whole-cell patch clamp, HEK293T cells expressing mutant
Type in all cases: cell-based
Settings in all cases: for relative responsiveness: 100 µM agonist 2 s, relative to ATP (100%)
rP2X4R N208A mutant = molecular target: T1, rP2X4R N208A mutant (Rattus norvegicus, UniProt P51577, N208A)
T1 construct: expressed in transfected cells; host or cells: HEK293T
T1 sequence (P51577 1-388 N208A): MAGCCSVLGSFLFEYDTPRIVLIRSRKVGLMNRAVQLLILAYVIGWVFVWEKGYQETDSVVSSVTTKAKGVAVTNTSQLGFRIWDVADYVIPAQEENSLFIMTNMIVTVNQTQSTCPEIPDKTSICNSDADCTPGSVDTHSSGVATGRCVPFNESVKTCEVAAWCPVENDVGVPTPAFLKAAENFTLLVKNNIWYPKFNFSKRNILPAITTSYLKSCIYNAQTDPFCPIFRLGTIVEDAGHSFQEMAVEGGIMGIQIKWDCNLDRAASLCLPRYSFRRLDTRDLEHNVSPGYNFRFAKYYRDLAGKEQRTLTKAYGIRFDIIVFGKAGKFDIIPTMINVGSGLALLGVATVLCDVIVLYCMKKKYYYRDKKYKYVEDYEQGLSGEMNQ

rP2X4R T211A mutant = molecular target: T2, rP2X4R T211A mutant (Rattus norvegicus, UniProt P51577, T211A)
T2 construct: expressed in transfected cells; host or cells: HEK293T
T2 sequence (P51577 1-388 T211A): T1 sequence (P51577 1-388 N208A) with A208N, T211A

rP2X4R G291A mutant = molecular target: T3, rP2X4R G291A mutant (Rattus norvegicus, UniProt P51577, G291A)
T3 construct: expressed in transfected cells; host or cells: HEK293T
T3 sequence (P51577 1-388 G291A): T1 sequence (P51577 1-388 N208A) with A208N, G291A

[1] = 100 µM ATP 60 s, biexponential fit
[2] = contribution of τdes2, 100 µM ATP 60 s
[3] = decay after removal of 1 or 3 µM ATP, 3 µM IVM
[4] = naïve receptors, 2–5 s application
[5] = 3 µM IVM 4-6 min vs IVM-untreated

relative responsiveness (rP2X4R N208A mutant): 60.0±11.2% | relative responsiveness (rP2X4R T211A mutant): 79.3±6.7% | relative responsiveness (rP2X4R G291A mutant): 36.9±8.8 %
Molecule: CSc1nc(N)c2ncn([C@@H]3O[C@H](COP(=O)(O)OP(=O)(O)OP(=O)(O)O)[C@@H](O)[C@H]3O)c2n1 [2-MeS-ATP, 2-(Methylthio)adenosine 5′-triphosphate]

Molecule: 2′(3′-O-(4-Benzoylbenzoyl)adenosine 5′-triphosphate [BzATP]
relative responsiveness (rP2X4R N208A mutant): 33.4±5.4% | relative responsiveness (rP2X4R T211A mutant): 23.4±4.7 % | relative responsiveness (rP2X4R G291A mutant): 53.0±4.0 %

Molecule: Nc1ncnc2c1ncn2[C@@H]1O[C@H](COP(=O)(O)OP(=O)(O)OP(=O)(O)O)[C@@H](O)[C@H]1O [ATP]
τdes1 (rP2X4R N208A mutant; [1]): 1.1 ± 0.8 s | τdes2 (rP2X4R N208A mutant; [1]): 8.7 ± 4.8 s | Imax (rP2X4R N208A mutant; 100–1000 µM ATP): 1.7 ± 0.3 nA | Imax+IVM (rP2X4R N208A mutant; ATP after 3 µM IVM 4-6 min): 3.6 ± 0.3 nA | A2 /(A1+A2) (rP2X4R N208A mutant; [2]): 77 ± 4% | τoff +IVM (rP2X4R N208A mutant; [3]): 9.1 ± 0.2 s | EC50 (rP2X4R N208A mutant; [4]): 7.6 ± 2.1 µM | τdes (rP2X4R N208A mutant; weighted, 100 µM ATP 60 s): 6.8 ± 3.5 s | τdes1 (rP2X4R T211A mutant; [1]): 0.9 ± 0.4 s | τdes2 (rP2X4R T211A mutant; [1]): 8.3 ± 2.4 s | Imax (rP2X4R T211A mutant; 100–1000 µM ATP): 2.3 ± 0.3 nA | Imax+IVM (rP2X4R T211A mutant; ATP after 3 µM IVM 4-6 min): 3.9 ± 0.7 nA | A2 /(A1+A2) (rP2X4R T211A mutant; [2]): 60 ± 8% | τoff +IVM (rP2X4R T211A mutant; [3]): 28 ± 2.5 s | EC50 (rP2X4R T211A mutant; [4]): 2.6 ± 0.6 µM | τdes (rP2X4R T211A mutant; weighted, 100 µM ATP 60 s): 5.0 ± 1.1 s | τdes1 (rP2X4R G291A mutant; [1]): 2.0 ± 0.5 s | τdes2 (rP2X4R G291A mutant; [1]): 16.5 ± 2.7 s | Imax (rP2X4R G291A mutant; 100–1000 µM ATP): 2.1 ± 0.2 nA | Imax+IVM (rP2X4R G291A mutant; ATP after 3 µM IVM 4-6 min): 3.3 ± 0.4 nA | A2 /(A1+A2) (rP2X4R G291A mutant; [2]): 69 ± 12% | τoff +IVM (rP2X4R G291A mutant; [3]): 13 ± 1.0 s | EC50 (rP2X4R G291A mutant; [4]): 15 ± 3.8 µM | τdes (rP2X4R G291A mutant; weighted, 100 µM ATP 60 s): 13 ± 2.7 s

Molecule: Nc1ncnc2c1ncn2C1OC(COP(=O)(O)CP(=O)(O)OP(=O)(O)O)C(O)C1O (stereo not drawn) [α,β-meATP, α,β-methyleneadenosine 5′-triphosphate]
relative responsiveness (rP2X4R N208A mutant): 28.5±2.3% | relative responsiveness (rP2X4R T211A mutant): 39.1±7.2% | relative responsiveness (rP2X4R G291A mutant): 2.8±0.5 %

relative responsiveness (rP2X4R N208A mutant): 42.2±5.2% | relative responsiveness (rP2X4R T211A mutant): 61.8±6.1% | relative responsiveness (rP2X4R G291A mutant): 31.6±6.1 %
Molecule: Nc1ncnc2c1ncn2[C@@H]1O[C@H](CO[P@](=O)(O)O[P@](=O)(O)O[P@@](=O)(O)S)[C@@H](O)[C@H]1O [ATPγS, Adenosine 5′-(γ-thio)triphosphate]

Molecule: CC[C@H](C)[C@H]1O[C@]2(CC[C@@H]1C)C[C@@H]1C[C@@H](C/C=C(\C)[C@@H](O[C@H]3C[C@H](OC)[C@@H](O[C@H]4C[C@H](OC)[C@@H](O)[C@H](C)O4)[C@H](C)O3)[C@@H](C)/C=C/C=C3\CO[C@@H]4[C@H](O)C(C)=C[C@@H](C(=O)O1)[C@]34O)O2 [IVM, ivermectin]
Fold incr. Imax (rP2X4R N208A mutant; [5]): 2.3 ± 0.5 fold | Fold incr. Imax (rP2X4R T211A mutant; [5]): 1.6 ± 0.3 fold | Fold incr. Imax (rP2X4R G291A mutant; [5]): 1.4 ± 0.02 fold
